Legend:
Assay in all cases: Cell growth inhibitory effect, cell counting kit 8, 6 days
Type in all cases: cell-based
[1] = tested on: NCI-H322 cells, a human lung cancer cell line; details: 144 h, 6 days incubation
Procedure, shortened: (§1)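 Cells grown in RPMI1640 with 10% FBS, plated at 500 cells/well (NCI-H226, NCI-H322) and incubated one day before serially diluted compound was added (0.1% DMSO final). After 6 days at 37 °C, 5% CO2, CCK-8 colour developed 2–3 h and A450 read; GI50 derived from growth inhibition rate.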

[2] = tested on: NCI-H226 cells, a human mesothelioma cell line; details: 144 h, 6 days incubation
Procedure, shortened: as §1

[3] = tested on: HuH28, a human liver cancer cell line; details: 144 h, HuH28 cells, 6 days incubation
Procedure, shortened: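 HuH28 human liver cancer cells (JCRB0426) were maintained below 80% density in RPMI1640 with 10% FBS and grown in 96-well flat-bottom plates. Test compound was serially diluted to 5 times final concentration and added with DMSO at 0.1%, then incubated for 6 days at 37° C in 5% CO2. Viable cells were counted with cell counting kit 8 at dosing and on day 6, using a 2 or 3 hour color reaction and absorbance at 450 nm. GI50 was derived from growth inhibition rates.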

Row | GI50 [1] [nM] | GI50 ([2]; group 100 nmol/L to 1 μmol/L (upper bound given in μmol/L)) [nM] | GI50 [3] [nM] | GI50 ([2]; group less than 100 nmol/L) [nM] | SMILES
1 | < 1000 | 100 to 1000 | < 3000 |  | C=CC(=O)NCc1ccc(C(=O)c2ccc(C(F)(F)F)cc2)c2ncccc12 [Compound 208, N-([8-{4-(Trifluoromethyl)benzoyl}quinolin-5-yl]methyl)acrylamide]
2 | < 1000 |  | < 3000 | < 100 | C=CC(=O)NCc1ccc(Cc2ccc(C(F)(F)F)cc2)c2ncccc12 [Compound 211, N-([8-{4-(Trifluoromethyl)benzyl}quinolin-5-yl]methyl)acrylamide]
3 | < 1000 |  | < 3000 | < 100 | C=CC(=O)NCc1ccc(Oc2ccc(C(F)(F)F)cc2)c2nc(C)ccc12 [Compound 212, N-([2-Methyl-8-{4-(trifluoromethyl)phenoxy}quinolin-5-yl]methyl)acrylamide]
4 | < 1000 |  | < 3000 | < 100 | C=CC(=O)NCc1cnc(Oc2ccc(C(F)(F)F)cc2)c2ccccc12 [Compound 222, N-([1-{4-(Trifluoromethyl)phenoxy}isoquinolin-4-yl]methyl)acrylamide]
5 | < 1000 |  | < 3000 | < 100 | C=CC(=O)NCc1ccc(Oc2ccc(C(F)(F)F)cc2)c2cnccc12 [Compound 223, N-([8-{4-(Trifluoromethyl)phenoxy}isoquinolin-5-yl]methyl)acrylamide]
6 | < 1000 |  | < 3000 | < 100 | C=CC(=O)NCc1ncc(Oc2ccc(C(F)(F)F)cc2)c2ccccc12 [Compound 224, N-([4-{4-(Trifluorophenyl)phenoxy}isoquinolin-1-yl]methyl)acrylamide]
7 | < 1000 |  | < 3000 | < 100 | C=CC(=O)NCc1ccc(Oc2ccc(C(F)(F)F)cc2)c2ccncc12 [Compound 225, N-([5-{4-(Trifluoromethyl)phenoxy}isoquinolin-8-yl]methyl)acrylamide]
8 | < 1000 |  | < 3000 | < 100 | C=CC(=O)Nc1cnc(Oc2ccc(Cl)cc2)c2ncccc12 [Compound 226, N-{8-(4-chlorophenoxy)-1,7-naphthyridin-5-yl}acrylamide]
9 | < 1000 |  | < 3000 | < 100 | C=CC(=O)NCc1cnc(Oc2ccc(Cl)cc2)c2ncccc12 [Compound 227, N-[{8-(4-Chlorophenoxy)-1,7-naphthyridin-5-yl}methyl]acrylamide]
